Measured values published in publication PMC5407767, “Characterization and expression analysis of Galnts in developing Strongylocentrotus purpuratus embryos” (PLoS ONE, 2017).

Target: SpGalNAc-T2 (Strongylocentrotus purpuratus, UniProt A0A7M7T5A5)
Assay: GalNAc transfer to peptide acceptors, radioactivity (dpm/3hr)
Assay type: biochemical
Details: acceptor peptides EA2, MUC5AC, MUC5AC-3, MUC5AC-13, MUC5AC-3/-13, SpDelta, SpNotch, 37°C, donor not given

SpGalNAc-T2, sequence (A0A7M7T5A5 37-564): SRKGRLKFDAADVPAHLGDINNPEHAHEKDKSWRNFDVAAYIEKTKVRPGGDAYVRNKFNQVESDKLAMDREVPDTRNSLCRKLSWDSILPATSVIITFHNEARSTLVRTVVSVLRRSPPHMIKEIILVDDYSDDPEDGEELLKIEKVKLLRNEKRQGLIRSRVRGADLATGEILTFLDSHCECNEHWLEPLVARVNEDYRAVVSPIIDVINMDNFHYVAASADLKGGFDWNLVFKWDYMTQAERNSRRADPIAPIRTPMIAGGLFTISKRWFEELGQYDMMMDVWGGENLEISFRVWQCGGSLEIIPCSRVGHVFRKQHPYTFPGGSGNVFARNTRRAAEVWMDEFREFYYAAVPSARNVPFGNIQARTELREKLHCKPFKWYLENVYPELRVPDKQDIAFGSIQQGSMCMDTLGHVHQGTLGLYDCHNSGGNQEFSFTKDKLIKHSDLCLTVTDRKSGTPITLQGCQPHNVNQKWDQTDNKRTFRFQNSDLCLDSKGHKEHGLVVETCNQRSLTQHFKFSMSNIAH

In the case of `CC(=O)N[C@H]1[C@@H](OP(=O)(O)OP(=O)(O)OC[C@H]2O[C@@H](n3ccc(=O)[nH]c3=O)[C@H](O)[C@@H]2O)O[C@H](CO)[C@H](O)[C@@H]1O` [UDP-GalNAc], the “GalNAc transfer to peptide acceptors, radioactivity (dpm/3hr)” value is reported as “GalNAc-T activity was observed for SpGalNAc-T1, SpGalNAc-T2, SpGalNAc-T7, SpGalNAc-T7-1, and SpGalNAc-T7-2”.
